Where two headings read alike, the source gives them in different places.
Columns and labels:
[1] = biological target: Japanese encephalitis virus (JEV)-NS2B-NS3 protease (Japanese encephalitis virus, UniProt P32886, DEL1469-1493); test: JEV protease inhibition assay; assay type: biochemical
[2] = system: ZIKV replicon; test: ZIKV replication inhibition assay (NanoLuc replicon in Vero cells); conditions: Zika virus, Vero, 72 h, read-out: ZIKA Cell_Nanoluc
[3] = read-out: JEV - NS3 protease, 600 nM enzyme, 10 µM Pyr-RTKR-AMC substrate, 25 °C

| Structure (SMILES) | IC50 [1, 3] [µM] | EC50 [2] [µM] | IC50 [1] [µM] |
| --- | --- | --- | --- |
| COc1ncc(-c2ccc(C[n+]3cc([N-]C(=O)Nc4cc(NC(=O)c5ccccc5)cc(C(F)(F)F)c4)on3)cc2)c(C)n1 [Example 15] | 1 to 20 | 0.1 to 1 | – |
| COc1ncc(-c2ccc(C[n+]3cc([N-]C(=O)Nc4cc(NC(=O)Cc5ccc(Cl)cc5)cc(C(F)(F)F)c4)on3)cc2)c(C)n1 [Example 17] | > 20 | 1 to 20 | – |
| COc1ncc(-c2ccc(C[n+]3cc([N-]C(=O)Nc4cc(NC(=O)Cc5noc6ccccc56)cc(C(F)(F)F)c4)on3)cc2)c(C)n1 [Example 20] | > 20 | > 20 | – |
| COc1ncc(-c2ccc(C[n+]3cc([N-]C(=O)Nc4cc(NC(=O)Cc5ccc(CN)cc5)cc(C(F)(F)F)c4)on3)cc2)c(C)n1 [Example 22] | > 20 | 1 to 20 | – |
| N[C@H]1C[C@H]([n+]2cc([N-]C(=O)Nc3cc(NC(=O)Cc4ccccc4)cc(C(F)(F)F)c3)on2)C1 [Example 26, (3-((1R,3R)-3-Aminocyclobutyl)-1,2,3-oxadiazol-3-ium-5-yl)((3-(2-phenylacetamido)-5-(trifluoromethyl)phenyl)carbamoyl)amide] | – | > 20 | 1 to 20 |
| CN(C)[C@H]1C[C@H]([n+]2cc([N-]C(=O)Nc3cc(NC(=O)Cc4ccccc4)cc(C(F)(F)F)c3)on2)C1 [Example 55, (3-((1R3R)-3-(Dimethylamino)cyclobutyl)-1,2,3-oxadiazol-3-ium-5-yl)((3-(2-phenyl-acetamido)-5-(trifluoromethyl)phenyl)-carbamoyl)amide] | – | 1 to 20 | 1 to 20 |
| NC[C@H]1CC[C@@H]([n+]2cc([N-]C(=O)Nc3cc(NC(=O)Cc4ccccc4)cc(C(F)(F)F)c3)on2)CC1 [Example 59, (3-((1S,4S)-4-(Aminomethyl)cyclohexyl)-1,2,3-oxadiazol-3-ium-5-yl)((3-(2-phenyl-acetamido)-5-(trifluoromethyl)phenyl)-carbamoyl)amide] | – | 1 to 20 | 1 to 20 |
| O=C(Cc1ccccc1)Nc1cc(NC(=O)[N-]c2c[n+]([C@H]3CC[C@@H](CN4C(=O)c5ccccc5C4=O)CC3)no2)cc(C(F)(F)F)c1 [Example 60, (3-((1S,4S)-4-((1,3-Dioxoisoindolin-2-yl)methyl)cyclohexyl)-1,2,3-oxadiazol-3-ium-5-yl)((3-(2-phenylacetamido)-5-(trifluoromethyl)-phenyl)carbamoyl)amide] | – | 1 to 20 | 1 to 20 |
| CN(C)C[C@H]1CC[C@@H]([n+]2cc([N-]C(=O)Nc3cc(NC(=O)Cc4ccccc4)cc(C(F)(F)F)c3)on2)CC1 [Example 61, (3-((1S,4S)- -4-((Dimethylamino)methyl)cyclohexyl)-1,2,3-oxadiazol-3-ium-5-yl)((3-(2-phenylacetamido)-5-(trifluoromethyl)phenyl)carbamoyl)amide] | – | 1 to 20 | 1 to 20 |
| CC(=O)NC[C@H]1CC[C@@H]([n+]2cc([N-]C(=O)Nc3cc(NC(=O)Cc4ccccc4)cc(C(F)(F)F)c3)on2)CC1 [Example 62, (3-((1S,4S)-4-(Acetamidomethyl)cyclohexyl)-1,2,3-oxadiazol-3-ium-5-yl)((3-(2-phenylacetamido)-5-(trifluoromethyl)phenyl)carbamoyl)amide] | – | > 20 | 1 to 20 |
| N[C@H]1CC[C@@H]([n+]2cc([N-]C(=O)Nc3cc(NC(=O)Cc4ccccc4)cc(C(F)(F)F)c3)on2)CC1 [Example 91, (3-((1S,4S)-4-Aminocyclohexyl)-1,2,3-oxadiazol-3-ium-5-yl)((3-(2-phenylacetamido)-5-(trifluoromethyl)phenyl)carbamoyl)amide] | – | > 20 | 1 to 20 |
| N[C@H]1CC[C@H]([n+]2cc([N-]C(=O)Nc3cc(NC(=O)Cc4ccccc4)cc(C(F)(F)F)c3)on2)CC1 [Example 92, (3-((1R,4R)-4-Aminocyclohexyl)-1,2,3-oxadiazol-3-ium-5-yl)((3-(2-phenylacetamido)-5-(trifluoromethyl)phenyl)carbamoyl)amide] | – | > 20 | 1 to 20 |
| NC[C@H]1CC[C@H]([n+]2cc([N-]C(=O)Nc3cc(NC(=O)Cc4ccccc4)cc(C(F)(F)F)c3)on2)CC1 [Example 93, (3-((1R,4R)-4-(Aminomethyl)cyclohexyl)-1,2,3-oxadiazol-3-ium-5-yl)((3-(2-phenyl-acetamido)-5-(trifluoromethyl)phenyl)-carbamoyl)amide] | – | 1 to 20 | 0.1 to 1 |
| CN(C)C[C@H]1CC[C@H]([n+]2cc([N-]C(=O)Nc3cc(NC(=O)Cc4ccccc4)cc(C(F)(F)F)c3)on2)CC1 [Example 94, (3-((1R,4R)-4-((Dimethylamino)methyl)-cyclohexyl)-1,2,3-oxadiazol-3-ium-5-yl)((3-(2-phenylacetamido)-5-(trifluoromethyl)phenyl)-carbamoyl)amide] | 1 to 20 | – | – |
| CN(C)[C@H]1CC[C@@H]([n+]2cc([N-]C(=O)Nc3cc(NC(=O)Cc4ccccc4)cc(C(F)(F)F)c3)on2)CC1 [Example 95, (3-((1S,4S)-4-(Dimethylamino)cyclohexyl)-1,2,3-oxadiazol-3-ium-5-yl)((3-(2-phenylacetamido)-5-(trifluoromethyl)phenyl)-carbamoyl)amide] | – | 1 to 20 | 1 to 20 |
| CN(C)[C@H]1CC[C@H]([n+]2cc([N-]C(=O)Nc3cc(NC(=O)Cc4ccccc4)cc(C(F)(F)F)c3)on2)CC1 [Example 96, (3-((1R,4R)-4-(dimethylamino)cyclohexyl)-1,2,3-oxadiazol-3-ium-5-yl)((3-(2-phenylacetamido)-5-(trifluoromethyl)phenyl)-carbamoyl)amide] | – | 1 to 20 | 1 to 20 |
| NC[C@H]1CC[C@@H]([n+]2cc([N-]C(=O)Nc3cc(N4CCC(c5ccccc5)C4=O)cc(C(F)(F)F)c3)on2)CC1 (stereo partly drawn) [Example 119, (3-((1S,4S)-4-(Aminomethyl)cyclohexyl)-1,2,3-oxadiazol-3-ium-5-yl)((3-(2-oxo-3-phenylpyrrolidin-1-yl)-5-(trifluoromethyl)phenyl)-carbamoyl)amide] | – | 1 to 20 | 1 to 20 |
| O=C([N-]c1c[n+]([C@H]2CC[C@@H](CNCC(F)(F)F)CC2)no1)Nc1cc(N2CCC(c3ccccc3)C2=O)cc(C(F)(F)F)c1 (stereo partly drawn) [Example 135, ((3-(2-Oxo-3-phenylpyrrolidin-1-yl)-5-(trifluoromethyl)phenyl)carbamoyl)(3-((1S,4S)-4-(((2,2,2-trifluoroethyl)amino)methyl)-cyclohexyl)-1,2,3-oxadiazol-3-ium-5-yl)amide] | – | 1 to 20 | > 20 |
| CN(C)C[C@H]1CC[C@@H]([n+]2cc([N-]C(=O)Nc3cc(N4CCC(c5ccccc5)C4=O)cc(C(F)(F)F)c3)on2)CC1 (stereo partly drawn) [Example 138, (3-((1S,4S)-4-((Dimethylamino)methyl)-cyclohexyl)-1,2,3-oxadiazol-3-ium-5-yl)((3-(2-oxo-3-phenylpyrrolidin-1-yl)-5-(trifluoromethyl)-phenyl)carbamoyl)amide] | – | 1 to 20 | 1 to 20 |
| O=C([N-]c1c[n+](C[C@H]2CC[C@@H](CNCC(F)(F)F)CC2)no1)Nc1cc(N2CCC(c3ccccc3)C2=O)cc(C(F)(F)F)c1 (stereo partly drawn) [Example 139, ((3-(2-Oxo-3-phenylpyrrolidin-1-yl)-5-(trifluoromethyl)phenyl)carbamoyl)(3-(((1s,4s)-4-(((2,2,2-trifluoroethyl)amino)methyl)cyclohexyl)-methyl)-1,2,3-oxadiazol-3-ium-5-yl)amide] | – | 1 to 20 | > 20 |

— patent EP4563146A1 (IRBM S.P.A., priority 2023, dated 2025)
